Measurements as given in the NIST ThermoML archive (doi:10.1007/s10765-009-0602-6).

Assay: molar heat capacity at constant volume; xn = mol fraction of the nth substance listed
Settings: x1 = 0.2607

N [ammonia] + O
Settings | molar heat capacity at constant volume [J/K/mol]
600.42 K, Fluid (supercritical or subcritical phases), Mass density=309.95 kg/m3, isochoric heat capacity | 99.2
600.43 K, Fluid (supercritical or subcritical phases), Mass density=301.94 kg/m3, isochoric heat capacity | 108.54
600.45 K, Fluid (supercritical or subcritical phases), Mass density=308.35 kg/m3, isochoric heat capacity | 94.94
600.48 K, Fluid (supercritical or subcritical phases), Mass density=299.79 kg/m3, isochoric heat capacity | 116.67
600.48 K, Liquid, Isochoric heat capacity | 116.67
600.5 K, Fluid (supercritical or subcritical phases), Mass density=299.79 kg/m3, isochoric heat capacity | 112.59
600.5 K, Fluid (supercritical or subcritical phases), Mass density=303.47 kg/m3, isochoric heat capacity | 94.55
600.51 K, Fluid (supercritical or subcritical phases), Mass density=301.94 kg/m3, isochoric heat capacity | 105.98
600.51 K, Fluid (supercritical or subcritical phases), Mass density=309.95 kg/m3, isochoric heat capacity | 100.78
600.59 K, Fluid (supercritical or subcritical phases), Mass density=299.79 kg/m3, isochoric heat capacity | 104.74
600.59 K, Fluid (supercritical or subcritical phases), Mass density=301.94 kg/m3, isochoric heat capacity | 99.68
600.59 K, Fluid (supercritical or subcritical phases), Mass density=303.47 kg/m3, isochoric heat capacity | 94.4
600.59 K, Fluid (supercritical or subcritical phases), Mass density=309.95 kg/m3, isochoric heat capacity | 100.97
600.62 K, Fluid (supercritical or subcritical phases), Mass density=308.35 kg/m3, isochoric heat capacity | 91.03
600.63 K, Fluid (supercritical or subcritical phases), Mass density=297.6 kg/m3, isochoric heat capacity | 114.9
600.63 K, Liquid, Isochoric heat capacity | 114.9
600.66 K, Fluid (supercritical or subcritical phases), Mass density=303.47 kg/m3, isochoric heat capacity | 95.13
600.67 K, Fluid (supercritical or subcritical phases), Mass density=299.79 kg/m3, isochoric heat capacity | 101.47
600.69 K, Fluid (supercritical or subcritical phases), Mass density=309.95 kg/m3, isochoric heat capacity | 95.49
600.72 K, Fluid (supercritical or subcritical phases), Mass density=297.6 kg/m3, isochoric heat capacity | 112.64
600.77 K, Fluid (supercritical or subcritical phases), Mass density=297.6 kg/m3, isochoric heat capacity | 109.73
600.77 K, Fluid (supercritical or subcritical phases), Mass density=299.79 kg/m3, isochoric heat capacity | 98.67
600.77 K, Fluid (supercritical or subcritical phases), Mass density=305.44 kg/m3, isochoric heat capacity | 101.79
600.8 K, Fluid (supercritical or subcritical phases), Mass density=308.35 kg/m3, isochoric heat capacity | 92.66
600.81 K, Fluid (supercritical or subcritical phases), Mass density=294.44 kg/m3, isochoric heat capacity | 113.83
600.81 K, Liquid, Isochoric heat capacity | 113.83
600.85 K, Fluid (supercritical or subcritical phases), Mass density=294.44 kg/m3, isochoric heat capacity | 111.38
600.85 K, Fluid (supercritical or subcritical phases), Mass density=297.6 kg/m3, isochoric heat capacity | 105.54
600.85 K, Fluid (supercritical or subcritical phases), Mass density=305.44 kg/m3, isochoric heat capacity | 96.13
600.86 K, Fluid (supercritical or subcritical phases), Mass density=299.79 kg/m3, isochoric heat capacity | 99.55
600.9 K, Fluid (supercritical or subcritical phases), Mass density=342.18 kg/m3, isochoric heat capacity | 88.83
600.93 K, Fluid (supercritical or subcritical phases), Mass density=292.97 kg/m3, isochoric heat capacity | 112.06
600.93 K, Liquid, Isochoric heat capacity | 112.06
600.94 K, Fluid (supercritical or subcritical phases), Mass density=292.97 kg/m3, isochoric heat capacity | 106.05
600.94 K, Fluid (supercritical or subcritical phases), Mass density=294.44 kg/m3, isochoric heat capacity | 103.91
600.94 K, Fluid (supercritical or subcritical phases), Mass density=297.6 kg/m3, isochoric heat capacity | 103.82
600.94 K, Fluid (supercritical or subcritical phases), Mass density=305.44 kg/m3, isochoric heat capacity | 99.89
600.94 K, Fluid (supercritical or subcritical phases), Mass density=320.33 kg/m3, isochoric heat capacity | 94.88
600.98 K, Fluid (supercritical or subcritical phases), Mass density=308.35 kg/m3, isochoric heat capacity | 89.18
601.02 K, Fluid (supercritical or subcritical phases), Mass density=305.44 kg/m3, isochoric heat capacity | 99.43
601.02 K, Fluid (supercritical or subcritical phases), Mass density=320.33 kg/m3, isochoric heat capacity | 95.95
601.02 K, Fluid (supercritical or subcritical phases), Mass density=342.18 kg/m3, isochoric heat capacity | 87.43
601.04 K, Fluid (supercritical or subcritical phases), Mass density=292.97 kg/m3, isochoric heat capacity | 101.74
601.05 K, Fluid (supercritical or subcritical phases), Mass density=291.16 kg/m3, isochoric heat capacity | 111.35
601.05 K, Liquid, Isochoric heat capacity | 111.35
601.08 K, Fluid (supercritical or subcritical phases), Mass density=291.16 kg/m3, isochoric heat capacity | 105.11
601.11 K, Fluid (supercritical or subcritical phases), Mass density=292.97 kg/m3, isochoric heat capacity | 94.42
601.11 K, Fluid (supercritical or subcritical phases), Mass density=301.94 kg/m3, isochoric heat capacity | 97.37
601.11 K, Fluid (supercritical or subcritical phases), Mass density=305.44 kg/m3, isochoric heat capacity | 95.1
601.11 K, Fluid (supercritical or subcritical phases), Mass density=320.33 kg/m3, isochoric heat capacity | 90.05
601.12 K, Fluid (supercritical or subcritical phases), Mass density=291.16 kg/m3, isochoric heat capacity | 93.41
601.16 K, Fluid (supercritical or subcritical phases), Mass density=188.05 kg/m3, isochoric heat capacity | 106.16
601.16 K, Liquid, Isochoric heat capacity | 102.61
601.19 K, Fluid (supercritical or subcritical phases), Mass density=301.94 kg/m3, isochoric heat capacity | 94.4
601.19 K, Fluid (supercritical or subcritical phases), Mass density=305.44 kg/m3, isochoric heat capacity | 94.51
601.19 K, Fluid (supercritical or subcritical phases), Mass density=320.33 kg/m3, isochoric heat capacity | 88.79
601.2 K, Fluid (supercritical or subcritical phases), Mass density=188.05 kg/m3, isochoric heat capacity | 93.94
601.21 K, Fluid (supercritical or subcritical phases), Mass density=291.16 kg/m3, isochoric heat capacity | 94.65
601.21 K, Fluid (supercritical or subcritical phases), Mass density=292.97 kg/m3, isochoric heat capacity | 99.73
601.24 K, Fluid (supercritical or subcritical phases), Mass density=342.18 kg/m3, isochoric heat capacity | 88.83
601.28 K, Fluid (supercritical or subcritical phases), Mass density=320.33 kg/m3, isochoric heat capacity | 91.03
601.29 K, Fluid (supercritical or subcritical phases), Mass density=301.94 kg/m3, isochoric heat capacity | 98.17
601.3 K, Fluid (supercritical or subcritical phases), Mass density=188.05 kg/m3, isochoric heat capacity | 86.48
601.34 K, Fluid (supercritical or subcritical phases), Mass density=285.71 kg/m3, isochoric heat capacity | 107.97
601.34 K, Fluid (supercritical or subcritical phases), Mass density=301.94 kg/m3, isochoric heat capacity | 95.7
601.34 K, Liquid, Isochoric heat capacity | 107.97
601.37 K, Fluid (supercritical or subcritical phases), Mass density=285.71 kg/m3, isochoric heat capacity | 99.59
601.37 K, Fluid (supercritical or subcritical phases), Mass density=294.44 kg/m3, isochoric heat capacity | 105.52
601.37 K, Fluid (supercritical or subcritical phases), Mass density=297.6 kg/m3, isochoric heat capacity | 102.84
601.37 K, Fluid (supercritical or subcritical phases), Mass density=342.18 kg/m3, isochoric heat capacity | 89.33
601.38 K, Fluid (supercritical or subcritical phases), Mass density=188.05 kg/m3, isochoric heat capacity | 66.72
601.39 K, Fluid (supercritical or subcritical phases), Mass density=291.16 kg/m3, isochoric heat capacity | 92.22
601.45 K, Fluid (supercritical or subcritical phases), Mass density=285.71 kg/m3, isochoric heat capacity | 94.44
601.45 K, Fluid (supercritical or subcritical phases), Mass density=294.44 kg/m3, isochoric heat capacity | 102.41
601.45 K, Fluid (supercritical or subcritical phases), Mass density=297.6 kg/m3, isochoric heat capacity | 99.66
601.45 K, Fluid (supercritical or subcritical phases), Mass density=301.94 kg/m3, isochoric heat capacity | 92.5
601.46 K, Fluid (supercritical or subcritical phases), Mass density=299.79 kg/m3, isochoric heat capacity | 97
601.47 K, Fluid (supercritical or subcritical phases), Mass density=320.33 kg/m3, isochoric heat capacity | 92.7
601.5 K, Fluid (supercritical or subcritical phases), Mass density=188.05 kg/m3, isochoric heat capacity | 72.1
601.53 K, Fluid (supercritical or subcritical phases), Mass density=299.79 kg/m3, isochoric heat capacity | 99
601.54 K, Fluid (supercritical or subcritical phases), Mass density=285.71 kg/m3, isochoric heat capacity | 89.22
601.54 K, Fluid (supercritical or subcritical phases), Mass density=297.6 kg/m3, isochoric heat capacity | 101.22
